Test results reported in PMC10709440, “High-throughput ligand profile characterization in novel cell lines expressing seven heterologous insect olfactory receptors for the detection of volatile plant biomarkers” (Scientific Reports, 2023).

Experiments:
[1] = biological target: T1, Drosophila OR10a (Drosophila melanogaster, UniProt Q9VYZ1); test: cell-based; design: GCaMP6 calcium fluorescence in stable HEK293 OR+ORCO lines; peak dF normalised to 50 uM VUAA1 (=1); settings: HEK293; relative to 50 uM VUAA1 response; below 0.05 set to 0; read-out: % activation
T1 construct: expressed in transfected cells
T1 sequence (Q9VYZ1 1-406): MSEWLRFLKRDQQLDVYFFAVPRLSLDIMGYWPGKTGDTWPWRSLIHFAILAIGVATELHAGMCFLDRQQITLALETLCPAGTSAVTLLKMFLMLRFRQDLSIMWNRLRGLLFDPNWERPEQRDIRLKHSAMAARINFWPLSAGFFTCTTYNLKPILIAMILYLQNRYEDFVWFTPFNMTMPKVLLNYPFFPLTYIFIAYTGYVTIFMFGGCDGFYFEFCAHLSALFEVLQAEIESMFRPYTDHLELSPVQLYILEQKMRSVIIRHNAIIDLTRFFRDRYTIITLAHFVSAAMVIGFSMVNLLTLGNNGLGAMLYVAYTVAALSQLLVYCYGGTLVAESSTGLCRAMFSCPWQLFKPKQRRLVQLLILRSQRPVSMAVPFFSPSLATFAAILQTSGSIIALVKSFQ
T1 sequence (Q9VNB5 1-486 partner): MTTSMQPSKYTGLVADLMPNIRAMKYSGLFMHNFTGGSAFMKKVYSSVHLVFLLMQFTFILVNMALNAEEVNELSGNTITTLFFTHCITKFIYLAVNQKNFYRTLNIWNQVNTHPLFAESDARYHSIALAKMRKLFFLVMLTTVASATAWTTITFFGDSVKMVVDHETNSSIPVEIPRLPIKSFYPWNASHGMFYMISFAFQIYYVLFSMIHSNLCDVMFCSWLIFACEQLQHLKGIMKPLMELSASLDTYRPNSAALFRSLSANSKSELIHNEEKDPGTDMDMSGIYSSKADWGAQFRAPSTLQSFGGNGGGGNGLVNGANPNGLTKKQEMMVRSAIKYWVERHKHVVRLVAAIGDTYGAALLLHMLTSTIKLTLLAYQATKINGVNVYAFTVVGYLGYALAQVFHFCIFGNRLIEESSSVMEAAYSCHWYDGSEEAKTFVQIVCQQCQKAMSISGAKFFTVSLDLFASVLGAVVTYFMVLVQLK
Method: (§1) Twelve thousand to 18,000 cells were plated into each well of a black wall, transparent bottom 384-well microplate (Greiner) 48 h or 72 h before the measurements and were simultaneously treated with 1 μg/mL doxycycline. Typically, three columns were filled with one OR expressing cell line, each row was treated with the same compound (three technical replicates for each OR), and each responsive VOC-OR combination was measured at least three times on different days. The plate has 24 columns, thus we could record responses in up to eight different cell lines in each plate. On the day of the experiment, the growth medium was replaced with 20 µL assay buffer/well (140 mM NaCl, 5 mM KCl, 2 mM CaCl2, 1 mM MgCl2, 5 mM HEPES-Na, 20 mM glucose, pH 7.3, 340 mOsm). […] Baseline fluorescence (F0) was recorded for 5 s, after which 7 µL VOC buffer (140 mM NaCl, 5 mM KCl, 2 mM CaCl2, 1 mM MgCl2, 5 mM HEPES-Na, 31 mM glucose, 0.1% DMSO, pH 7.3, 340 mOsm) was injected into each well in one row and the fluorescence response was recorded for an additional 30 s, at a rate of one read/sec. VOC solutions (VOC buffer with 4× concentration of the final measured VOC concentration, 9 µL/well was injected) were measured on the same wells in a second round with the same protocol. Each individual concentration of a specific VOC sample was recorded in three wells for the same cell line on the same microplate. The raw data were exported in xls file format, F0 and FMAX values, and the fluorescence intensity changes (∆F) were calculated in Excel (Microsoft) (Supplementary file Data summary.xlsx) using the following equation: ΔF=FMAX-F0/F0 (see also Fig. 1C). On each plate, we recorded the response of each cell line to 50 µM VUAA1. The average of these ∆F values of each cell line were used to calculate the VUAA1-normalized values for the rest of the plate, by dividing VOC response ∆F values by the average VUAA1 response ∆F value of the corresponding OR cell line. Each VOC-OR combination was measured three times as tec The recorded FMAX, F0, ∆F, VUAA1-normalized ∆F values, as well as the OR name, the name of the tested sample, and the final concentration for each well were copied into supplementary file Data summary.xlsx, that was used to summarize all the plates recorded. Here, the averages of the measurements were calculated for each receptor-VOC-concentration combination. […] Each VOC was measured at 1, 10, and 100 µM final concentration on each receptor. VUAA1-normalized response was calculated as described in methods. Values are averages of at least three biological replicates for responsive combinations and two for the non-responsive combinations. The chemical structures of the strong and medium ligands are shown for each cell line. Heat map: white-green colors correspond to the lowest-highest values measured for each cell line.

[2] = biological target: T2, Drosophila OR85b (Drosophila melanogaster, UniProt Q9VHQ7); test: cell-based; design: GCaMP6 calcium fluorescence in stable HEK293 OR+ORCO lines; peak dF normalised to 50 uM VUAA1 (=1); settings: HEK293; relative to 50 uM VUAA1 response; below 0.05 set to 0; read-out: % activation
T2 construct: expressed in transfected cells
T2 sequence (Q9VHQ7 1-390): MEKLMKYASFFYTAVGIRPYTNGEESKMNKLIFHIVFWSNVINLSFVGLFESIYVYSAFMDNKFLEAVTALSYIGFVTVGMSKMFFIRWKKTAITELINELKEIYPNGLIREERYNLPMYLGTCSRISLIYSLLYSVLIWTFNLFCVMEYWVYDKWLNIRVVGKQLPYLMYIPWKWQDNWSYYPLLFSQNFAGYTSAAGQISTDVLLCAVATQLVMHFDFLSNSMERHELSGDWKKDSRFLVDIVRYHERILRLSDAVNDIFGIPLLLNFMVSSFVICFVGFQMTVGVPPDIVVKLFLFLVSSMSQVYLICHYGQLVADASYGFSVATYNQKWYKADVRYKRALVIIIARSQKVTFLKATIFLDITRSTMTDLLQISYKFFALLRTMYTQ
T2 sequence (Q9VNB5 1-486 partner): T1 sequence (Q9VNB5 1-486 partner)
Method: as §1

SMILES: CC/C=C/CCO [e3-hexenol]
- activity at 1 µM [1]: 0%
- activity at 10 µM [1]: 0%
- activity at 100 µM [1]: 7.4%
- activity at 1 µM [2]: 0%
- activity at 10 µM [2]: 0%
- activity at 100 µM [2]: 0%
